According to US10280401B2, “Method of measuring inhibition of phosphatidylcholine export transport and/or formation activity” (Biotranex, LLC, priority 2015, dated 2019):

What was measured:
[1] = tested on: PC export transport activity; assay: Inhibition of PC export transport activity in rat hepatocytes (d9-choline, taurocholic acid, LC/MS/MS); type: cell-based; details: Hepatocyte, 100 μg/mL d9-choline, 5 mM taurocholic acid, 2 hours; for inhibition at 1 µM: drug 1 μM; for inhibition at 10 µM: drug 10 μM; for inhibition at 100 µM: drug 100 μM
Experimental: (§1) The effect of a test agent in terms of percentage (%) of inhibition on PC export transport and/or formation activity is determined by the following equation: […]
(§2) Fifty mL InVitroGRO HT medium was pre-warmed in a 37° C. water bath. A vial of hepatocyte was removed from a liquid N2 tank and quickly warmed in a 37° C. water bath by holding in hand with slow rotation. As soon as the edge of the frozen cells was separated from the wall of the vial, the frozen cells were poured into the pre-warmed HT medium and the remaining cells in the vial were collected using pipette. The tube was centrifuged at 50 g, 25° C. for 5 minutes, the supernatant was removed and the cell pellet was re-suspended in 8 mL of pre-warmed Williams E buffer, the cell numbers were counted in a hemocytometer. […] The cells were counted in 0.4% Trypan blue (80 μL Williams E buffer+10 μL Trypan blue stock+10 μL cells). The hepatocyte concentration was adjusted with Williams E buffer to meet the objectives of various experiments.
(§3) LC/MS/MS assays: Liquid chromatography was carried out using a Shimadzu (Columbia, Md.) HPLC system consisting of an SCL-10 Avp system controller, two LC-10 ADvp pumps, a CTC HTC PAL autosampler, a Shimadzu SPD-10 ADvp UV detector and an automated switching valve. The switching valve was used to divert the column effluent to either waste or to the MS instrument. The Shimadzu HPLC system was used for sample injection and analyte separation. Each sample was loaded onto a reverse phase column, Phenomenex (Torrance, Calif.) Luna C85μ2 mm×50 mm. The column chamber's temperature was ambient. The initial HPLC mobile phase conditions used for separation and elution of analytes comprised 50% acetonitrile in water containing 0.1% formic acid (A) and isopropanol:acetonitrile (9:1) (B). The flow rate was 0.5 mL/min. The amount of B in the mobile phase was ramped linearly up to 62% over a 0.5-minute period followed by a slow increase to 63% B in 4.5 minutes, then a rapid increase to 95% B in 0.1 min. After holding at 95% B for 2.3 minutes, the mobile phase was reset to the initial conditions in 0.1 minute. The analytical column was equilibrated with the starting mobile phase for 2.5 minutes. The total run time for each sample analysis was approximately 10 minutes.
(§4) The HPLC elute was injected into an AB Sciex AP14000 LC/MS/MS system (Framingham, Mass.) equipped with a Turbo IonSpray source set with a desolvation temperature of 450° C. Nitrogen was used as curtain gas, nebulizer gas, heater gas, and collision gas. Data for PC was acquired in the positive ion mode using multiple reaction monitoring methods (MRM). The ion transitions of the MRM method for specific detection of PC species were developed in standard fashion. Ionspray voltage was set at 4000 V and the collision gas (CAD) set at 6. Declustering potential and collision energy was set at 50 and 42 respectively for PC. The PC species were monitored using the following transitions: 768→193, 770→193, 796→193, 798→193, 792→193, 794→193, 816→193. (S)-(+)-Methyl 2-(4,5,6,7-tetrahydrothieno[3,2-c]pyridin-5-yl)-2-(2-chlorophenyl)acetate hydrogensulfate was used as an internal standard with the following ion transition: 322.2→152.1. Propane-1-sulfonic acid {3-[5-(4-chlorophenyl)-1H-pyrrolo[2,3-b]pyridine-3-carbonyl]-2,4difluoro-phenyl}-amide was also used as an internal standard with the following ion transition: 490.1→383.1.
(§5) Data analysis: Extracellular concentrations of PC were determined by LC/MS/MS MRM analysis of the 4000 RPM supernatant fractions post-incubation. Cellular concentrations of PC were determined by LC/MS/MS MRM of the extracts of hepatocytes post incubation. PC export transport and/or formation activity and test agent percent inhibition were calculated using the following equations: […]

[2] = tested on: PC export transport activity; assay: Inhibition of PC export transport activity in human hepatocytes (d9-choline, taurocholic acid, LC/MS/MS); type: cell-based; details: Hepatocyte, 100 μg/mL d9-choline, 5 mM taurocholic acid, 2 hours; for inhibition at 1 µM: drug 1 μM; for inhibition at 10 µM: drug 10 μM; for inhibition at 100 µM: drug 100 μM
Experimental: as §1, §2, §3, §4, §5

| SMILES | inhibition at 1 µM [1] | inhibition at 10 µM [1] | inhibition at 100 µM [1] | inhibition at 1 µM [2] | inhibition at 10 µM [2] | inhibition at 100 µM [2] |
| --- | --- | --- | --- | --- | --- | --- |
| CC1=C(CC(=O)O)c2cc(F)ccc2/C1=C\c1ccc([S+](C)[O-])cc1 (stereo not drawn) [Sulindac, sulindac] | ≤ 30% | 30 to 70% | ≥ 70% | – | – | – |
| Cc1c(C)c2c(c(C)c1O)CCC(C)(COc1ccc(CC3SC(=O)NC3=O)cc1)O2 (stereo not drawn) [Troglitazone, troglitazone] | – | – | – | ≤ 30% | 30 to 70% | ≥ 70% |
| CC(=O)N1CCN(c2ccc(OCC3COC(Cn4ccnc4)(c4ccc(Cl)cc4Cl)O3)cc2)CC1 (stereo not drawn) [Ketoconazole, ketoconazole] | 30 to 70% | 30 to 70% | ≥ 70% | ≤ 30% | 30 to 70% | ≥ 70% |
| COC1=CC(=O)C[C@@H](C)[C@]12Oc1c(Cl)c(OC)cc(OC)c1C2=O [Griseofulvin, griseofulvin] | ≤ 30% | 30 to 70% | ≥ 70% | – | – | – |
| CN(C)CCCN1c2ccccc2Sc2ccc(Cl)cc21 [Chlorpromazine, chlorpromazine] | 30 to 70% | ≥ 70% | ≥ 70% | ≤ 30% | 30 to 70% | ≥ 70% |
| CC(C)(S)[C@@H](N)C(=O)O [Penicillamine, penicillamine] | – | – | – | ≤ 30% | ≤ 30% | ≤ 30% |
| Clc1ccccc1C(c1ccccc1)(c1ccccc1)n1ccnc1 [Clotrimazole, clotrimazole] | ≤ 30% | ≤ 30% | ≥ 70% | – | – | – |
| O=C(O)CCCC[C@@H]1SC[C@@H]2NC(=O)N[C@@H]21 [Biotin, biotin] | ≤ 30% | ≤ 30% | ≤ 30% | ≤ 30% | ≤ 30% | ≤ 30% |
